Series [1] has as its system neuropathic pain (mechanical allodynia) in SCI, LSS and SNI animal models. Description: Mechanical allodynia (von Frey, 50% threshold) in SCI, LSS and SNI neuropathic pain models. Type of series: in vivo, Sprague-Dawley rats. The protocol:
To be used as a central nerve injury animal model, a traumatic spinal cord injury (SCI) model was prepared (FIG. 1A). Specifically, 230 to 250 g of male adult Sprague-Dawley rats were anesthetized by intraperitoneal injection of chloral hydrate (500 mg/kg), and then the back and neck regions were shaved, and the spinal cord under the back and neck regions was exposed without damaging the dura mater, and a laminectomy was performed at T9 to T10 levels. To stabilize the spine, the spinous processes of T8 and T11 were fixed, and the spine was damaged by free-falling a 10 g weight from a height of 25 mm using an NYU impactor onto the back surface of the exposed spinal cord and then the rats were left in a temperature and humidity-controlled chamber overnight while covering the muscles and skin. After surgery, the rats were subcutaneously injected with a supplement solution (5 ml, lactated ringer) and injected with antibiotics (gentamicin, 5 mg/kg, intramuscular injection) once daily for 5 days. The body weight, remaining food, and the weight of water were confirmed and recorded for all animals, and the bladder was emptied twice daily by passive bladder massage until reflex micturition was established. At this time, a Sham group was a group that was subjected to only laminectomy without damage.
To be used as a peripheral nerve injury animal model, a lumbar spinal stenosis (LSS) model was prepared (FIG. 1B). Specifically, 260 to 280 g of adult male Sprague-Dawley rats were anesthetized with intraperitoneal injection of chloral hydrate (500 mg/kg), the back region was shaved, and then the spinal plate was exposed at L4 to S2 levels. After removing the ligamentous section between L4 and L5, a trapezoidal silicone block (1.00 mm long×1.3 to 1.2 mm wide×1.0 mm high) was inserted into the epidural space below the L5 and L6 spinal plates without damaging the dural sac. At this time, a Sham group was a group that was subjected to only posterior […] on the animal without inserting a silicone block.
To be used as a peripheral nerve injury animal model, a sciatic nerve injury (SNI) model was prepared (FIG. 1C). Specifically, 200 to 220 g of male adult Sprague-Dawley rats were anesthetized by intraperitoneal injection of chloral hydrate (500 mg/kg), and then three terminal branches (tibial, common peroneal, and sural nerves) of the right sciatic nerve were approached, and the tibia nerve and the peroneal nerve were tightly ligated with 4-0 silk, and neurectomy was performed at a distal 3 mm position of the ligation site. At this time, a Sham group was a group that exposed only the sciatic nerve without damage.
In order to confirm a neuropathic pain inhibitory effect of YJ102 (Chemical Formula 1), a compound of the present disclosure, in the three nerve injury animal models prepared in Example 1 above, rats having pain on week 3 (SNI model) or week 4 (SCI model and LSS model) after surgery were selected and administered orally (p.o.) at 10 mg/kg or 20 mg/kg of YJ102 dissolved in a solution of DMSO, methyl pyrrolidinone, and water (1:1.5:1), or intraperitoneally injected (i.p. injection) at 1, 2, or 5 mg/kg of YJ102. In a positive control group, gabapentin or pregabalin dissolved in saline was intraperitoneally injected at a concentration of 5 mg/kg, and in a Vehicle group, the same amount of a solution of DMSO, methyl pyrrolidinone, and water was administered. Thereafter, in order to measure mechanical allodynia, the rats were located at the bottom of a transparent plastic box (10 cm×10 cm) on top of a wire mesh (3 mm×3 mm) and subjected to an adaptation period for approximately 20 minutes. Von-Frey filaments were applied to the soles of both paws and used with stiff nylon von-Frey monofilament series ([…], Stoelting, WoodDale, IL, USA; equivalent in grams to 0.4, 0.6, 1.0, 2.0, 4.0, 6.0, 8.0 and 15.0) with logarithmic increases in tactile (mechanical) sensitivity. […]

The test system of the next series is sedation. Description: Sedation as side effect of the drug. The conditions noted are these: 100 mg/kg. Type of series: in vivo, Sprague-Dawley rats.
A further series has as its system ZO-1. Description: Tight junction protein ZO-1 in bladder of SCI model, Western blot. Type of series: in vivo, Sprague-Dawley rats. The note with it: SCI day 1, Western blot.
The subject of a further series is UPIII. Description: Urothelial marker UPIII in SCI model, Western blot. The conditions noted are these: day 3 after SCI. Type of series: in vivo, Sprague-Dawley rats.
The subject of series [2] is psoriasis (IMQ psoriasis animal model). Description: Erythema and scaling (PASI) in IMQ psoriasis model. Type of series: in vivo, C57BL/6 mouse. The protocol: (§1) Psoriasis caused by excessive production of skin cells was a chronic skin disease associated with various factors, including autoimmune diseases, and its symptoms included red and thickened skin and abnormally occurring scaling. […] Specifically, the back region of a C57BL/6 mouse (male, 18 to 20 g, 8 weeks) (Daehan Biolink, Eumseong, Korea) was shaved to remove hair, and then applied with IMQ cream (83 mg/day) (5%) for consecutive 5 days from Day 0 to Day 4 to induce psoriasis-like skin inflammation, and a normal control mouse (Sham) was applied with Vaseline cream (FIG. 16A).
(§2) In order to confirm the effect of YJ102 (Chemical Formula 1), a compound of the present disclosure, on psoriasis, YJ102 dissolved in DMSO, methyl pyrrolidinone, and water (1:1.5:1) was administered intraperitoneally (5 mg/kg) for a total of 3 days on Day 2, Day 3, and Day 4, and the Vehicle group was administered in the same amount of a solution of DMSO, methyl pyrrolidinone, and water (1:1.5:1) (FIG. 16A). To assess daily skin changes, PASI scores were used for erythema and scaling. The PASI score was evaluated as a severity scale of 0 to 4, in which 0 meant none, 1 meant mild, 2 meant moderate, 3 meant severe, and 4 meant very severe. (PASI Reference: Yashpal Manchanda, Abhishek De, Sudip Das, and Disha Chakraborty. Disease Assessment in Psoriasis. Indian J Dermatol. 2023 May-June; 68 (3): 278-281.)

The subject of series [3] is skin tissue of psoriasis mouse model. In words: Epidermal layer thickness and dermal cell introduction (H&E) in IMQ psoriasis model. The conditions noted are these: 5 mg/kg i.p. Days 2-4, Day 6. It counts as in vivo, C57BL/6 mouse. The protocol:
as §1
as §2, with “(PASI Reference: Yashpal Manchanda, Abhishek De, Sudip Das, and Disha Chakraborty. Disease Assessment in Psoriasis. Indian J Dermatol. 2023 May-June; 68 (3): 278-281.)” left out
On day 6, the skin tissue of the psoriasis mouse model was stained with Hematoxyline & Eosin, and the epidermal layer thickness was measured. […]

Where [4] appears, read: p.o. 10 mg/kg or 20 mg/kg, all three models (SCI, LSS, SNI).
[5] abbreviates: 5 mg/kg i.p. Days 2-4, vs Vehicle.

We go through one compound from US20260335293A1, “USE OF NOVEL COMPOUND FOR TREATING INTRACTABLE DISEASES” (YJ CERAPEUTICS INC., priority 2023, published 2026).

Bounds are passed on as bounds.

For the compound `CCc1ccc(N(C(=O)COC)c2nc3cc(Cl)ccc3o2)cc1` [YJ102], the “duration of analgesic effect relative to existing drugs (gabapentin, pregabalin)” value in series [1] (i.p.) is “more than three times longer”. Further, the “analgesic effect relative to gabapentin or pregabalin” value in series [1] (i.p., at the same concentration as gabapentin or pregabalin) is reported as “more than twice as high”. In series [1] (setting [4]), the “duration of analgesic effect” value was not below 4 h and the “mechanical allodynia threshold increased from (time after administration)” value is 30 min. For the same compound, the sedation result in the series with sedation is given as “sedation was not observed”. Besides, the “reduction in amount of ZO-1” value in the series on ZO-1 is on record as “significantly inhibited”. Moreover, the “reduction in level of UPIII (urothelial loss)” value in the series with UPIII is “inhibited”. The “symptoms (erythema and scaling) on Day 6” value in series [2] (5 mg/kg i.p. Days 2-4, Day 6) is given as “appeared to be alleviated”. Also, in series [2] (setting [5]), the “degree of erythema (PASI)” value is listed as “significantly lower than that of the Vehicle group” and the “degree of scaling (PASI)” value was “significantly lower than that of the Vehicle group”. Further, in series [3], the “number of cells introduced into the dermal layer” value was “decreased to the Sham level” and the “reduction of epidermal layer thickness compared to Vehicle group” value is given as “approximately 35%”.
